Assays:
[1] = human
[2] = human; remark: listed apart in the source
[3] = Times to onset, minimal and maximal, observed in the indexed observations. [column 'DELAI' in source]; conditions: human
[4] = human; remark: listed apart in the source
[5] = human; remark: listed apart in the source
[6] = human; remark: listed apart in the source
[7] = human; remark: listed apart in the source
[8] = human; remark: listed apart in the source
[9] = human, serum
[10] = Highest frequency of acute liver toxicity observed during clinical trials, expressed as a percentage. [column '% AIGUE' in source]; conditions: human
[11] = human; remark: listed apart in the source
[12] = human; remark: listed apart in the source
[13] = Highest frequency of moderate liver toxicity observed during clinical trials, expressed as a percentage. [column '% BIOL' in source]; conditions: human
[14] = human, serum, 4383 h
[15] = human, serum; remark: listed apart in the source
[16] = human; remark: listed apart in the source
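For Hepatotoxicity (association with vascular disease) in this document: count of indexed literature references reporting vascular liver injury in humans, e.g. peliosis hepatitis, hepatic veno-occlusive disease or Budd-Chiari syndrome.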
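For Hepatotoxicity (benign tumour) in this document: value is a count of indexed literature references citing a benign tumour confirmed by histopathology.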
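For Hepatotoxicity (choleostasis) in this document: human cholestatic liver injury, shown by histopathology or by peak ALT or AST elevation over alkaline phosphatase ratio below 2, value counts indexed literature reports.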
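For Hepatotoxicity (chronic liver disease) in this document: chronic liver injury confirmed by histopathology or persistently raised serum aminotransferase activity beyond 6 months, value given as the count of indexed literature references.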
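For Hepatotoxicity (cirrhosis) in this document: value is a count of indexed literature references reporting cirrhosis confirmed by histopathology.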
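For Hepatotoxicity (cytolytic) in this document: human cytolytic liver injury, shown by histopathology or by a ratio above 5 of peak ALT or AST elevation to alkaline phosphatase elevation, value counts indexed references.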
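For Hepatotoxicity (granulomatous hepatitis) in this document: value is a count of indexed literature references reporting granulomatous liver disease confirmed by histopathology.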
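For Hepatotoxicity (malignant tumour) in this document: malignant tumour confirmed by histopathology, value gives the count of indexed literature references reporting it.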
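For Hepatotoxicity (severe hepatitis) in this document: human clinical data: severe hepatitis, meaning potentially life-threatening liver failure or clinically observed cases, the value counts how many indexed literature references report it.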
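For Hepatotoxicity (steatosis) in this document: steatosis confirmed by histopathology, value is the count of indexed references.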

SMILES | Hepatotoxicity (cytolytic) ([1]; Liver) | Hepatotoxicity (severe hepatitis) ([2]; Liver) | Hepatotoxicity (time to onset) [3] | Hepatotoxicity (steatosis) [4] | Hepatotoxicity (granulomatous hepatitis) ([5]; Liver) | Hepatotoxicity (benign tumour) [6] | Hepatotoxicity (cirrhosis) [7] | Hepatotoxicity (animal toxicity known) [8] | Hepatotoxicity (moderate) [9] | Hepatotoxicity (acute) ([10]; Liver) [%] | Hepatotoxicity (association with vascular disease) [11] | Hepatotoxicity (chronic liver disease) [14] | Hepatotoxicity (acute) [15] | Hepatotoxicity (malignant tumour) [16] | Hepatotoxicity (cytolytic) [1] | Hepatotoxicity (severe hepatitis) [2] | Hepatotoxicity (granulomatous hepatitis) [5] | Hepatotoxicity (acute) [10] [%] | Hepatotoxicity (choleostasis) [12] | Hepatotoxicity (moderate) [13] [%] | also measured
Cl[C@H]1[C@H](Cl)[C@@H](Cl)[C@@H](Cl)[C@H](Cl)[C@H]1Cl [LINDANE] | 1 | 0 | 3 weeks | 0 | 0 | 0 | 0 | yes | 0 | 0 | 0 | 0 | 2 | 0 |  |  |  |  |  |  | Hepatotoxicity (choleostasis) ([12]; Liver): 0; Hepatotoxicity (moderate) ([13]; Liver): 0%
O=NN(CCCl)C(=O)NC1CCCCC1 [LOMUSTINE] |  |  | 2 days - 4 months | 0 |  | 0 | 0 | yes | 4 |  | 0 | 0 | 2 | 0 | 1 | 1 | 0 | 0 | 2 | 39 | 
OC(c1cc(C(F)(F)F)nc2c(C(F)(F)F)cccc12)C1CCCCN1 (stereo not given) [MEFLOQUINE] |  |  | 2 weeks - 3 weeks | 1 |  | 0 | 0 | yes | 5 |  | 0 | 0 | 2 | 0 | 1 | 0 | 0 | 0 | 0 | 22.5 | 
[N-]=[N+]=O [NITROUS OXIDE] |  |  | 9 days | 0 |  | 0 | 0 | yes | 1 |  | 0 | 0 | 1 | 0 | 1 | 0 | 0 | 0 | 0 | 0 | 
CNCCC=C1c2ccccc2CCc2ccccc21 [NORTRIPTYLINE] | 2 | 2 | 2 months - 3 months | 0 | 0 | 0 | 0 | yes | 1 | 0 | 0 | 0 | 2 | 0 |  |  |  |  |  |  | Hepatotoxicity (choleostasis) ([12]; Liver): 0; Hepatotoxicity (moderate) ([13]; Liver): 0%
NNCCc1ccccc1 [PHENELZINE] | 6 | 7 | 3 weeks - 5 months | 0 | 0 | 0 | 1 | yes | 1 | 0 | 0 | 0 | 6 | 1 |  |  |  |  |  |  | Hepatotoxicity (choleostasis) ([12]; Liver): 0; Hepatotoxicity (moderate) ([13]; Liver): 0%
COC(=O)[C@H]1[C@H]2C[C@@H]3c4[nH]c5cc(OC)ccc5c4CCN3C[C@H]2C[C@@H](OC(=O)c2cc(OC)c(OC)c(OC)c2)[C@@H]1OC [RESERPINE] |  |  | 1 year | 0 |  | 0 | 0 | yes | 0 |  | 0 | 0 | 3 | 0 | 0 | 0 | 0 | 0 | 1 | 0 | 
CN(C)[C@@H]1C(O)=C(C(=O)NCN2CCCC2)C(=O)[C@@]2(O)C(O)=C3C(=O)c4c(O)cccc4[C@@](C)(O)[C@H]3C[C@@H]12 [ROLITETRACYCLINE] |  |  | 2 days | 0 |  | 0 | 0 | yes | 0 |  | 0 | 0 | 1 | 0 | 1 | 1 | 0 | 0 | 0 | 0 | 
N=C(N)c1ccc(/C=C/c2ccc(C(=N)N)cc2)cc1 [STILBAMIDINE] |  |  | 1 month - 3 months | 0 |  | 0 | 0 | yes | 0 |  | 0 | 0 | 1 | 0 | 1 | 0 | 0 | 0 | 0 | 0 | 
COc1ccc(NS(=O)(=O)c2ccc(N)cc2)nn1 [SULFAMETHOXYPYRIDAZINE] |  |  | 1 month - 2 months | 0 |  | 0 | 0 | yes | 0 |  | 0 | 0 | 4 | 0 | 4 | 0 | 0 | 0 | 2 | 0 | 
